Results taken from ChEMBL document CHEMBL3507680, “University of Dundee, Gates Library screen for HepG2 cell viability”.

Test: Human HepG2 cell viability assay in 384 well format
Assay type: toxicity, cell-based
Design: dose 125 nL, time 70.5 hour; cytotoxicity at 70.5 h: concentration not given beside the values
Details: HepG2 cells, read-out: Inhibition

Q: For `Cc1cc(CCC(N)=O)cc(C2CCCN2Cc2ccccn2)n1` (stereo unspecified), which cytotoxicity at 70.5 h is on record?
A: The cytotoxicity at 70.5 h was -9.69%.

Q: Which cytotoxicity at 70.5 h does the source give for `CNC(=O)c1ccc(C(=O)N2CCCC(n3cc(C)cn3)C2)cn1` (stereo unspecified) here?
A: The cytotoxicity at 70.5 h was 40.9%.

Q: With `Cc1ccc(Cl)cc1NC(=O)C1CC(=O)N(Cc2ccccn2)C1` (stereo unspecified) as the compound, how does the cytotoxicity at 70.5 h read?
A: Its cytotoxicity at 70.5 h is 8.15%.

Q: With `Cn1ncc2c1C(COCC1CC1)CN(S(C)(=O)=O)C2` (stereo unspecified) as the compound, how does the cytotoxicity at 70.5 h read?
A: Its cytotoxicity at 70.5 h is -9.85%.

Q: Which cytotoxicity at 70.5 h does the source give for `CC(C)(C)C(O)CN1CCN(Cc2ccc(C#N)cc2)CC1` (stereo unspecified) here?
A: The cytotoxicity at 70.5 h was -6.98%.

Q: For `CC(Cn1ccnc1)NCc1nncn1C1CCCCC1` (stereo unspecified), which cytotoxicity at 70.5 h is on record?
A: The cytotoxicity at 70.5 h was -1.11%.

Q: For `O=C(N1CCCC1)N1CCC2(CC(=O)N(c3ccc4c(c3)OCO4)C2)C1` (stereo unspecified), which cytotoxicity at 70.5 h is on record?
A: Its cytotoxicity at 70.5 h is -2.04%.

Q: With `CNC(=O)[C@@H]1C[C@@H](N)CN1Cc1cc2cc(C)cc(C)c2[nH]c1=O` as the compound, how does the cytotoxicity at 70.5 h read?
A: Its cytotoxicity at 70.5 h is -12%.

Q: With `COCC1CN(S(=O)(=O)Cc2ccc(C)cc2)Cc2c1cnn2C` (stereo unspecified) as the compound, how does the cytotoxicity at 70.5 h read?
A: The cytotoxicity at 70.5 h was -6.77%.

Q: With `Cc1ccccc1CC(=O)N(C)CC1(O)CCCN(c2ccccn2)C1` (stereo unspecified) as the compound, how does the cytotoxicity at 70.5 h read?
A: Its cytotoxicity at 70.5 h is -5.53%.

Q: Which cytotoxicity at 70.5 h does the source give for `COc1c(C(=O)NC(C)Cc2ccccc2Cl)c(C)nn1C` (stereo unspecified) here?
A: Its cytotoxicity at 70.5 h is 3.5%.

Q: For `CCC(C)NS(=O)(=O)c1ccc(C(=O)N(C)C2(C#N)CCC2)cc1` (stereo unspecified), which cytotoxicity at 70.5 h is on record?
A: Its cytotoxicity at 70.5 h is -23.6%.

Q: For `COCCc1ncc(CN2CCC3(CCCN(CC4CC4)C3)C2)cn1` (stereo unspecified), which cytotoxicity at 70.5 h is on record?
A: Its cytotoxicity at 70.5 h is 0.629%.

Q: Which cytotoxicity at 70.5 h does the source give for `Cc1cccc2nc(CN3CCCC3Cn3cccn3)cn12` (stereo unspecified) here?
A: Its cytotoxicity at 70.5 h is -10.8%.

Q: With `O=C(Nc1nnc(C(F)F)s1)N[C@H](CCO)c1ccccc1` as the compound, how does the cytotoxicity at 70.5 h read?
A: Its cytotoxicity at 70.5 h is 0.703%.

Q: Which cytotoxicity at 70.5 h does the source give for `CC(c1ccc(S(N)(=O)=O)cc1)N(C)C(=O)c1ccccc1I` (stereo unspecified) here?
A: The cytotoxicity at 70.5 h was -5.97%.

Q: Which cytotoxicity at 70.5 h does the source give for `CCOc1ncccc1CNC(=O)N1CCCC1c1cccs1` (stereo unspecified) here?
A: Its cytotoxicity at 70.5 h is -11.7%.

Q: For `CCO[C@H]1CO[C@@]2(CCCN(S(=O)(=O)c3ccccc3)C2)C1`, which cytotoxicity at 70.5 h is on record?
A: The cytotoxicity at 70.5 h was 1.01%.

Q: For `COCC1CC2(CCN(C(=O)c3ccc(F)c(Cl)c3)CC2)CO1` (stereo unspecified), which cytotoxicity at 70.5 h is on record?
A: Its cytotoxicity at 70.5 h is 13%.

Q: With `CC(C)(C)c1ccc(-c2n[nH]c3c2CN(CC2CCOC2)CC3)cc1` (stereo unspecified) as the compound, how does the cytotoxicity at 70.5 h read?
A: Its cytotoxicity at 70.5 h is -12%.

Q: Which cytotoxicity at 70.5 h does the source give for `c1ccc(N2CCN(Cc3cnc(C4CCCCO4)nc3)CC2)cc1` (stereo unspecified) here?
A: Its cytotoxicity at 70.5 h is 4.6%.

Q: With `CN(C)C(C)(C)CNCc1cn(C)nc1-c1cccnc1` as the compound, how does the cytotoxicity at 70.5 h read?
A: Its cytotoxicity at 70.5 h is 17.8%.

Q: For `Cc1nc(C2CCCN2Cc2cc(Cl)c3c(c2)OCCO3)no1` (stereo unspecified), which cytotoxicity at 70.5 h is on record?
A: Its cytotoxicity at 70.5 h is 16.9%.

Q: Which cytotoxicity at 70.5 h does the source give for `O=C(NC1CC2(CCN(CCO)CC2)c2ccccc21)c1ccsc1` (stereo unspecified) here?
A: The cytotoxicity at 70.5 h was 8.71%.

Q: With `CCOc1ccc(Cl)c(C(=O)N2CCN(c3cnccn3)CC2)n1` as the compound, how does the cytotoxicity at 70.5 h read?
A: Its cytotoxicity at 70.5 h is 38.9%.

Q: With `COCCCN1CCC(CNc2nccc(-c3cnn(C)c3)n2)C1` (stereo unspecified) as the compound, how does the cytotoxicity at 70.5 h read?
A: Its cytotoxicity at 70.5 h is -6.55%.

Q: With `CSC(C)C(=O)N1CCCN(Cc2nccn2C)CC1` (stereo unspecified) as the compound, how does the cytotoxicity at 70.5 h read?
A: Its cytotoxicity at 70.5 h is -1.04%.

Q: Which cytotoxicity at 70.5 h does the source give for `Cc1ccc(C2(CN(C)Cc3sccc3C)CCNCC2)nc1` here?
A: The cytotoxicity at 70.5 h was 10.6%.

Q: Which cytotoxicity at 70.5 h does the source give for `N#Cc1ccccc1OCCN1CCCCC1Cn1cncn1` (stereo unspecified) here?
A: The cytotoxicity at 70.5 h was -7.56%.

Q: For `Cc1ncncc1C(=O)N1CCCN(Cc2cnn(C(C)C)c2)CC1`, which cytotoxicity at 70.5 h is on record?
A: The cytotoxicity at 70.5 h was 8.58%.

Q: Which cytotoxicity at 70.5 h does the source give for `COc1cc2c(cc1-c1nc3c(cnn3C(C)C(C)C)[nH]1)OCO2` (stereo unspecified) here?
A: The cytotoxicity at 70.5 h was -0.404%.

Q: For `COCCSc1ccc(C(C)NC(=O)Nc2cn[nH]c2)cc1` (stereo unspecified), which cytotoxicity at 70.5 h is on record?
A: The cytotoxicity at 70.5 h was -6.86%.

Q: Which cytotoxicity at 70.5 h does the source give for `CNC(=O)Cc1nc(CNc2ccc(SC)c(F)c2)cs1` here?
A: The cytotoxicity at 70.5 h was -0.256%.

Q: Which cytotoxicity at 70.5 h does the source give for `O=c1cnc2ccccc2n1CCCn1ccnc1` here?
A: The cytotoxicity at 70.5 h was -16.2%.

Q: For `Fc1ccc(-c2nc(CN3CCCCC3Cn3cncn3)co2)cc1` (stereo unspecified), which cytotoxicity at 70.5 h is on record?
A: Its cytotoxicity at 70.5 h is -3.61%.

Q: With `CN1CCN(C2CCN(CCOc3ccc(F)cc3)CC2)C1=O` as the compound, how does the cytotoxicity at 70.5 h read?
A: The cytotoxicity at 70.5 h was 18.4%.

Q: With `CN(C)c1ccc(C(=O)N2CCCC2c2ccc(Cl)cc2)nn1` (stereo unspecified) as the compound, how does the cytotoxicity at 70.5 h read?
A: The cytotoxicity at 70.5 h was -11.3%.

Q: With `CC(Cn1cccn1)NC(=O)N(C)Cc1ccsc1` (stereo unspecified) as the compound, how does the cytotoxicity at 70.5 h read?
A: Its cytotoxicity at 70.5 h is -16.6%.

Q: For `CC(C)CN1CC2(CCN(C(=O)C3CNC(=O)N3)CC2)CC1=O` (stereo unspecified), which cytotoxicity at 70.5 h is on record?
A: The cytotoxicity at 70.5 h was -9.7%.

Q: Which cytotoxicity at 70.5 h does the source give for `O=C(Cn1c(C(F)F)cc2cccnc21)NC1CCCC1` here?
A: Its cytotoxicity at 70.5 h is -2.74%.

Q: Which cytotoxicity at 70.5 h does the source give for `CNC(=O)[C@@]12CCO[C@@H]1CCN(S(=O)(=O)c1cccc(F)c1)C2` here?
A: The cytotoxicity at 70.5 h was -10.2%.

Q: Which cytotoxicity at 70.5 h does the source give for `COc1ccc(CNCC(C)Oc2ccccn2)cc1` (stereo unspecified) here?
A: Its cytotoxicity at 70.5 h is -18.6%.

Q: With `Cc1nc(C2CN(C)CCO2)cc(N2CCC(CO)CC2)n1` (stereo unspecified) as the compound, how does the cytotoxicity at 70.5 h read?
A: The cytotoxicity at 70.5 h was -4.15%.

Q: Which cytotoxicity at 70.5 h does the source give for `O=C(CO)N1C[C@H]2CC[C@@H]1CN(C1Cc3ccccc3C1)C2` here?
A: Its cytotoxicity at 70.5 h is -8.88%.

Q: With `O=C(CN1CCOCC1)Nc1ncc(Br)cc1Br` as the compound, how does the cytotoxicity at 70.5 h read?
A: The cytotoxicity at 70.5 h was -5.32%.

Q: Which cytotoxicity at 70.5 h does the source give for `c1cnnc(N[C@@H]2CC[C@@H]3CN(Cc4c[nH]c5ccccc45)C[C@@H]32)c1` here?
A: The cytotoxicity at 70.5 h was 4.96%.

Q: With `CN1CCC(c2n[nH]cc2-c2ccnc(N)c2)C1` (stereo unspecified) as the compound, how does the cytotoxicity at 70.5 h read?
A: The cytotoxicity at 70.5 h was 0.193%.

Q: For `O=C([C@@H]1CCCO1)N1CCn2c(Cn3cccn3)cnc2C1`, which cytotoxicity at 70.5 h is on record?
A: The cytotoxicity at 70.5 h was -0.354%.

Q: For `O=C1CCCN1Cc1ncn2c1CN(Cc1cccs1)CCC2`, which cytotoxicity at 70.5 h is on record?
A: Its cytotoxicity at 70.5 h is -1.34%.

Q: With `Cc1ncsc1CCC(=O)NCc1cc2n(n1)CCN(C(=O)N(C)C)C2` as the compound, how does the cytotoxicity at 70.5 h read?
A: The cytotoxicity at 70.5 h was 13.9%.

Q: With `Cc1cccc(C(=O)Nc2cccc3c2CCCC3)n1` as the compound, how does the cytotoxicity at 70.5 h read?
A: The cytotoxicity at 70.5 h was -1.46%.

Q: For `CC(=O)N1CCN(c2cncc(C3CCNCC3)n2)CC1`, which cytotoxicity at 70.5 h is on record?
A: Its cytotoxicity at 70.5 h is 34.1%.

Q: For `O=C1CCc2cc(-c3csc(CCN4CCOC4=O)n3)c(F)cc2N1`, which cytotoxicity at 70.5 h is on record?
A: Its cytotoxicity at 70.5 h is 24.3%.

Q: Which cytotoxicity at 70.5 h does the source give for `Cc1ccc(C)c(NS(=O)(=O)c2cc3c(c(C(=O)O)c2)OCCO3)c1` here?
A: Its cytotoxicity at 70.5 h is -8.38%.

Q: For `CC(C)CCN1C[C@@H]2OCCN(c3ncc(F)cn3)[C@@H]2C1`, which cytotoxicity at 70.5 h is on record?
A: Its cytotoxicity at 70.5 h is -4.42%.

Q: For `O=C(CNC(=O)N1CCc2c([nH]c3ccc(Cl)cc23)C1)NCCCO`, which cytotoxicity at 70.5 h is on record?
A: The cytotoxicity at 70.5 h was -18.9%.
